Measured values from US20210401708A1, “Skin Anti-Aging Composition Containing Irilin B” (PHYTO CORPORATION INC., priority 2018, published 2021).

How the values were obtained:
[1] = test system: Collagenase isolated from mouse pancreases; assay: Measurement of anti-collagenase activity; format: biochemical
Protocol: Collagenase, used in the measurement of enzyme activity, was isolated from mouse pancreases. The synthetic peptide, N-(3-[2-Furyl]acryloyl)-Leu-Gly-Pro-Ala, was used as a substrate compound for an enzymatic reaction. A solution containing 50 mM Tricine, 10 mM CaCl2.H2O, and 400 mM NaCl (pH 7.5) dissolved therein was used as a buffer solution. The synthetic substrate was dissolved to a concentration of […] in the buffer solution, and then finally diluted to 75 μM. Collagenase was dissolved to a concentration of 1 unit/ml in tertiary distilled water at 4° C. Upon the test, the collagenase diluted to a final concentration of 0.05 unit/ml in the buffer solution was used. […] In addition, the concentration of retinol (Sigma Co.), which was a positive control known as an anti-collagenase substance, was 10 μg/ml or 20 μg/ml in the test. The reaction was carried out in 96-well UV plates (Corning Co.) at room temperature for 10 minutes. The absorbance was measured at 345 nm at intervals of 1 minute using a microplate spectrophotometer (Bio-Rad). The enzyme activity was determined by obtaining the maximal slope of absorbance over time. All enzymatic reactions were repeatedly carried out three times, and expressed as average values. The anti-collagenase activity was calculated as below:
Anti-collagenase activity (%)=[(absolute value of slope in control−absolute value of slope in test sample)/absolute value of slope in control]×100 [Calculation Formula]

[2] = biological target: T1, elastase isolated from human leukocytes (Homo sapiens, UniProt P08246); assay: Measurement of anti-elastase activity; format: biochemical
T1 construct: The elastase isolated from human leukocytes were used; from tissue; host or cells: human leukocytes
T1 sequence (P08246 30-267): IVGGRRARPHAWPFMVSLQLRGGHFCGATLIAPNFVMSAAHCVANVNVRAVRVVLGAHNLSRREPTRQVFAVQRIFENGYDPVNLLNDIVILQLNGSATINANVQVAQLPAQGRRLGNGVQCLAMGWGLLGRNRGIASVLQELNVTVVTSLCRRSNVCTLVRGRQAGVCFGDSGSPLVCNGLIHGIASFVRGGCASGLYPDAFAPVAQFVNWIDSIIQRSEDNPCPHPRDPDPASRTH
Protocol: The anti-elastase activity (elastase being an elastin degradation enzyme) was tested as below. The elastase isolated from human leukocytes were used. The synthetic oligopeptide, MeOSuc-Ala-Ala-Pro-Val-pNA, was used as a substrate of an enzyme reaction. A 100 mM Tris (pH 7.5) solution was used as a buffer solution. Elastase was finally used at 0.2 mU using the buffer solution. In addition, the synthetic substrate of elastase was made into a 100 mM solution using […], and then diluted to a final concentration of 0.5 mM in the buffer solution. […] The concentration of quercetin (Sigma Co.), which was a positive control known as an anti-elastase substance, was 10 μg/ml or 20 μg/ml in the test. The reaction was carried out in 96-well UV plates (Corning Co.) at room temperature for 20 minutes. The absorbance was measured at 405 nm at intervals of 1 minute using a microplate spectrophotometer (Bio-Rad). The enzyme activity was determined by obtaining the maximal slope of absorbance over time. All enzymatic reactions were repeatedly carried out three times, and expressed as average values. The […] was calculated as below:
Anti-elastase activity (%)=[(absolute value of slope in control−absolute value of slope in test sample)/absolute value of slope in control]×100 [Calculation Formula]

aquaporin 3 (AQP3) = assay: Expression level of skin moisturizing factor AQP3 in UVA-irradiated HaCaT cells (RT-PCR); format: cell-based, human
Protocol: (§1) In order to investigate the expression levels of aquaporin 3 (AQP3) and hyaluronic acid synthase 2 (HAS2), which are moisturizing factors involved in the migration of cell moisture, the test was performed using the human skin keratinocytes HaCaT cells (Korean Cell Line Bank). The HaCaT cells were incubated in Dulbecco's modified Eagle's medium (DEME, Gibco 1210-0038) containing 10% FBS. Cell incubation was carried out using a 5% CO2 incubator at 37° C. After the cells were treated with Irilin B and ultraviolet light (aging treatment: UVA: 5 J/cm^2), the levels of AQP3 and HAS2 expressed in the cells were measured. The expression levels were measured by extracting RNA from the HaCaT cells and performing real-time polymerase change reaction (RT-PCR). The test substance Irilin B was treated after UVA irradiation. Irilin B was in advance prepared into a 10 mg/ml stock solution by addition of DMEM. Upon the test, the cells were treated with the stock solution diluted to 1/1,000 to 1/500. […]
(§2) The gene expression test (RNA extraction and real-time polymerase chain reaction (PCR)) was performed in the following order:
(§3) i) RNA was extracted using TRIzol Reagent (Gibco, USA).
(§4) ii) The cDNA synthesis from the extracted RNA was performed using the ReverTra Ace reverse transcriptase kit (Toyobo, USA). […]

[3] = test system: hyaluronic acid synthase 2 (HAS2); assay: Expression level of skin moisturizing factor HAS2 in UVA-irradiated HaCaT cells (RT-PCR); format: cell-based, human; settings: UVA 5 J/cm^2, 10, 20, 40 μg/ml, 24 hours
Protocol: as §1, §2, §3, §4

Human skin keratinocytes = assay: Keratinocyte differentiation promoting effect; format: cell-based; settings: for Cell differentiation promoting effect (%): vs distilled water (0%)
Protocol: Human skin keratinocytes (Korean Cell Line Bank) were seeded in the CO2 incubation flask in which DMEM containing 10% FBS was placed. After the cells were grown to a confluency of about 80%, Irilin B at different concentrations (5, 10, 20, 50, 100 μg/ml) were added to the cells, followed by incubation for 3 days. Thereafter, the cells were treated with a reduction modifier, such as sodium dodecyl sulfate (SDS) and β-mercaptoethanol, to remove proteins. After the treatment, the remaining keratinocyte layer was suspended in distilled water, and then the absorbance was measured at 310 nm to analyze the peptide concentration. The increase by each sample was compared on the basis of the negative control, distilled water (0%). In the positive control, the cells were treated with 10 nM TGF-β known as a cell differentiation factor. All the tests of keratinocyte differentiation promoting effect were repeatedly carried out three times. The absorbance at 310 nm is expressed as a mean and standard deviation, and the cell differentiation promoting effect is expressed, using the following calculation formula, as an average value (%), in Table 4.
Cell differentiation promoting effect (%)=(absorbance value at 310 nm in test sample−absorbance value at 310 nm in negative control)×100 [Calculation Formula]

[4] = both at 20 μg/ml, same conditions

| Molecule | Anti-collagenase activity (%) ([1]; 10 μg/ml) | Enzyme activity (Absolute value of maximal slope of absorbance over time at 345 nm) ([1]; 10 μg/ml) | Anti-collagenase activity (%) ([1]; 20 μg/ml) | Enzyme activity (Absolute value of maximal slope of absorbance over time at 345 nm) ([1]; 20 μg/ml) | Enzyme activity (Absolute value of maximal slope of absorbance over time at 405 nm) ([2]; 10 μg/ml) | inhibition at 10 µg/mL ([2]; 10 μg/ml) | Enzyme activity (Absolute value of maximal slope of absorbance over time at 405 nm) ([2]; 20 μg/ml) | inhibition at 20 µg/mL ([2]; 20 μg/ml) | also measured |
| --- | --- | --- | --- | --- | --- | --- | --- | --- | --- |
| COc1c(O)cc2occ(-c3ccccc3O)c(=O)c2c1O [Irilin B, 5,7,2′-trihydroxy-6-methoxyisoflavone] | 49.38% | 0.41 | 62.96% | 0.30 | 0.72 | 42.9% | 0.54 | 57.1% | Anti-collagenase activity (%) ([1]; 5 μg/ml): 33.33%; Enzyme activity (Absolute value of maximal slope of absorbance over time at 345 nm) ([1]; 5 μg/ml): 0.54; anti-collagenase activity compared with retinol [1, 4]: about 2.05 fold; Enzyme activity (Absolute value of maximal slope of absorbance over time at 405 nm) ([2]; 5 μg/ml): 0.85; inhibition at 5 µg/mL ([2]; 5 μg/ml): 32.5%; anti-elastase activity compared with quercetin [2, 4]: about 1.47 fold; expression level of AQP3 after UVA irradiation (FIG. 1) (aquaporin 3 (AQP3); UVA 5 J/cm^2, 40 μg/ml): again increased to a level in the control irradiated without UVA; expression of AQP3 after UVA irradiation (FIG. 1) (aquaporin 3 (AQP3); UVA 5 J/cm^2, 10, 20, 40 μg/ml, 24 hours): restored the UVA-reduced level of AQP3 in a dose dependent manner; expression of HAS2 after UVA irradiation (FIG. 2) [3]: again restored to a level in the normal control; Cell differentiation promoting effect (%) (Human skin keratinocytes; 10 μg/ml, 3 days): 28.2%; Cell differentiation promoting effect (%) (Human skin keratinocytes; 20 μg/ml, 3 days): 46.7%; Cell differentiation promoting effect (%) (Human skin keratinocytes; 50 μg/ml, 3 days): 95.3%; cell differentiation promoting effect compared with positive control (in words) (Human skin keratinocytes; 100 μg/ml vs TGF-β 10 nM): equivalent to the cell differentiation factor TGF-β (10 nM); Cell differentiation promoting effect (%) (Human skin keratinocytes; 100 μg/ml, 3 days): 142.4%; differentiation of keratinocytes (in words) (Human skin keratinocytes; 5, 10, 20, 50, and 100 μg/ml): promoted the differentiation of keratinocytes |
| O=c1c(O)c(-c2ccc(O)c(O)c2)oc2cc(O)cc(O)c12 [Quercetin, quercetin, reference compound] | – | – | – | – | 0.88 | 30.2 ± 3.14% | 0.77 | 38.9% | – |
| CC1=C(/C=C/C(C)=C/C=C/C(C)=C/CO)C(C)(C)CCC1 [Retinol, reference compound] | 17.28 ± 0.85% | 0.67 | 30.86% | 0.56 | – | – | – | – | – |
| transforming growth factor-β (TGF-β) | – | – | – | – | – | – | – | – | Cell differentiation promoting effect (%) (Human skin keratinocytes; 10 nM): 144.7% |
